Source: patent US8501446B2 (Vertex Pharmaceuticals Incorporated, priority 2004, dated 2013)
pKi: −log10 of the molar value.

Key:
Assay type in all cases: biochemical
ROCK I (AA 6-553) = target: T1, ROCK I (AA 6-553) (Homo sapiens, UniProt Q13464); experiment: ROCK inhibition assay, standard coupled enzyme system ("Enzyme"); conditions: enzyme-linked assay
T1 construct: ROCK I (AA 6-553)
How it was run: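 ROCK I (AA 6-553) at 45 nM and 30 °C with 45 μM ATP and 200 μM peptide, in 100 mM HEPES pH 7.5, 10 mM MgCl2, 25 mM NaCl, 2 mM DTT, 1.5% DMSO. ADP output read by a PK/LDH coupled system: 2.5 mM PEP, 350 μM NADH, 30 μg/ml PK, 10 μg/ml LDH.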

JAK2 = JAK2 (Homo sapiens, UniProt O60674); experiment: JAK2 inhibition assay (radioactive enzyme assay, as for JAK3); conditions: average Ki if more than one value determined
How it was run: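 Both kinases: poly(Glu)4Tyr substrate in 100 mM HEPES pH 7.4, 10 mM MgCl2, 1 mM DTT. Run 20 min at 25° C, TCA stop, filter-bound ³³P counted, Ki(app) fitted after background subtraction. JAK3: final [γ-³³P]ATP 5 μM, enzyme added as 2 nM solution. JAK2: final poly(Glu)4Tyr 15 μM, final ATP 12 μM.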

JAK3 = target: T2, JAK3 (Homo sapiens, UniProt P52333); experiment: JAK3 inhibition assay (standard radioactive enzyme assay); conditions: average Ki if more than one value determined
T2 sequence (P52333 1-1124): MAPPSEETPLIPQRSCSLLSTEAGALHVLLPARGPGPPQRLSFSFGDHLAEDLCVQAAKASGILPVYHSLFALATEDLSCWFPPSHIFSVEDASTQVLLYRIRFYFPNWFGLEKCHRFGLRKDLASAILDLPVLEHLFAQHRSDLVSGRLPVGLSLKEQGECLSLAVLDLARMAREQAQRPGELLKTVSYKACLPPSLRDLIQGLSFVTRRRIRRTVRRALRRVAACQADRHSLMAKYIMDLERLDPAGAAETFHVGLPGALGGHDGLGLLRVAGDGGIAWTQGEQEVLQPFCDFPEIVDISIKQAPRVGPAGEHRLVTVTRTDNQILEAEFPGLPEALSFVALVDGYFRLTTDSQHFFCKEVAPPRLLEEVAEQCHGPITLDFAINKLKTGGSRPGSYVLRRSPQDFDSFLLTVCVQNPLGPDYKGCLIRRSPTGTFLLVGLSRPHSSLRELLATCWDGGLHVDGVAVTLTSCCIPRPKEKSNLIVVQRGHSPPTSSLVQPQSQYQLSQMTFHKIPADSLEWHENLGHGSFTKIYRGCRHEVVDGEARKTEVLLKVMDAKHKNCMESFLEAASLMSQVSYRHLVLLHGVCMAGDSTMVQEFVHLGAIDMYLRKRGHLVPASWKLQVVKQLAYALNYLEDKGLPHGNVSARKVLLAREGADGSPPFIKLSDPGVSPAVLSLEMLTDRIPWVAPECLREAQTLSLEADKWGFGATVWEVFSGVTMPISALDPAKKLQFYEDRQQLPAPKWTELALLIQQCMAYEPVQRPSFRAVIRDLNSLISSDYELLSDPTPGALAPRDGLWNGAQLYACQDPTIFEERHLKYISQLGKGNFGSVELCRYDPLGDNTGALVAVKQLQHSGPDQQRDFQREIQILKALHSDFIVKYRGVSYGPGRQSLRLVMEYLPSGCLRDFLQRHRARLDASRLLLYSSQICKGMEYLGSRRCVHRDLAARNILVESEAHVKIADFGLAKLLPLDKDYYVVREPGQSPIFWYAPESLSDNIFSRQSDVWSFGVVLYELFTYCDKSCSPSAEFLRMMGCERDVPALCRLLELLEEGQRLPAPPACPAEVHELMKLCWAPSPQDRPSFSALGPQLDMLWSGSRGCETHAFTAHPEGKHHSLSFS

[1] = target: T3, full length Aurora-A (AA 1-403) (Homo sapiens, UniProt O14965); experiment: Aurora-A inhibition assay, standard coupled enzyme system; conditions: average Ki if more than one value determined
T3 construct: full length Aurora-A (AA 1-403)
T3 sequence (O14965 1-403): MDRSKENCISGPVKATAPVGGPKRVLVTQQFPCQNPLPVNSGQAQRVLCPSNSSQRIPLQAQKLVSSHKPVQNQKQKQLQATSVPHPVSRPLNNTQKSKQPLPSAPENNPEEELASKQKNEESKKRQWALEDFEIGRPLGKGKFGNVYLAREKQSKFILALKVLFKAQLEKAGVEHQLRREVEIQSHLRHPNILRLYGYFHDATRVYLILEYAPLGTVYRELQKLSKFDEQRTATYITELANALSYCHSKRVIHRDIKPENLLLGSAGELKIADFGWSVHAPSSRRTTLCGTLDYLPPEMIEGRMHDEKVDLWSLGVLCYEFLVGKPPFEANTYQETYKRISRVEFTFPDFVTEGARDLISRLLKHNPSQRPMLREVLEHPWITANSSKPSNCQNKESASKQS

T1 sequence (Q13464 6-553, species assumed): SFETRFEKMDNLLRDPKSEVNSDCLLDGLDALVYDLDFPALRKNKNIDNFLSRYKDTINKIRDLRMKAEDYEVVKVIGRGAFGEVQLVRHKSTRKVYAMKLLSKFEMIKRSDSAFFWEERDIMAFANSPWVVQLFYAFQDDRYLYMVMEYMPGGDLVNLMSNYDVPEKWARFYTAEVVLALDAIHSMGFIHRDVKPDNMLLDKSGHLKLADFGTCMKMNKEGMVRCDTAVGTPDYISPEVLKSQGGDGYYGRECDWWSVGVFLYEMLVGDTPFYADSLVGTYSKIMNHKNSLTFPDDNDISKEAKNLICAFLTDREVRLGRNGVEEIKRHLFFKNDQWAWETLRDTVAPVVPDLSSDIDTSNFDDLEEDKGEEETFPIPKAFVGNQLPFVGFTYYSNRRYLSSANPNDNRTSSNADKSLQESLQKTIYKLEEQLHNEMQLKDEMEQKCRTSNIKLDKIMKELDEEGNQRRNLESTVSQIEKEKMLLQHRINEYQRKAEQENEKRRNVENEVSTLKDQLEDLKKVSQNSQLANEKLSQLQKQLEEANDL
Sequence of JAK2 (O60674 whole entry, species assumed): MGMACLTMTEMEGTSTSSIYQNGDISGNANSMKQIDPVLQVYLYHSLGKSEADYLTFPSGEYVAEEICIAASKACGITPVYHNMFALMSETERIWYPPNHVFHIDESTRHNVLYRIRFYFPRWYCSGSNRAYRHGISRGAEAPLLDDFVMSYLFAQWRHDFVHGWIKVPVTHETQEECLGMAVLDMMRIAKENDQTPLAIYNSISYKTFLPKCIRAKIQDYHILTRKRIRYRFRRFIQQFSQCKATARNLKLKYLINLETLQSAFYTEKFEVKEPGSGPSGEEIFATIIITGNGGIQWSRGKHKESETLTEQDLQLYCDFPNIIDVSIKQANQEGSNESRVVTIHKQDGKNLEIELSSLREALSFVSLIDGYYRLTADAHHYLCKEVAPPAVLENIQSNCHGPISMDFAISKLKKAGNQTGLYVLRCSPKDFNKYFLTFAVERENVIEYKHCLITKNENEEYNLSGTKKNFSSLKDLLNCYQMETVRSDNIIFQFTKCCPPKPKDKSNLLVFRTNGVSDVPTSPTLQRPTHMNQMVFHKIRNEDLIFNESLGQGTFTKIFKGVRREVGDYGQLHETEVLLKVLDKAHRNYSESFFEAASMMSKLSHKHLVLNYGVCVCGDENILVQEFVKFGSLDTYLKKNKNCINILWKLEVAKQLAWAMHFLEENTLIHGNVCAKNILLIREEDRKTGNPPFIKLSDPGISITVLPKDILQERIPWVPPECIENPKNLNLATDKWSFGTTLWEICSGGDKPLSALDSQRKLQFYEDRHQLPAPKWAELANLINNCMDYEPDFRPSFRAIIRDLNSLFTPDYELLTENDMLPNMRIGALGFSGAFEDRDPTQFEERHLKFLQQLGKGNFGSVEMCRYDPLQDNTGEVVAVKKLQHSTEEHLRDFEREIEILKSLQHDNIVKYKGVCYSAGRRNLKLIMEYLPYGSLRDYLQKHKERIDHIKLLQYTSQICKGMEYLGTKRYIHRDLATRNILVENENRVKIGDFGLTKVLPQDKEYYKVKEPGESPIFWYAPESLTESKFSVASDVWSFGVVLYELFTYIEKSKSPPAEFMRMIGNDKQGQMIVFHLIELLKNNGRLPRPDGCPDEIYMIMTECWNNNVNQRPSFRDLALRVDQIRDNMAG

| Structure (SMILES) | pKi (ROCK I (AA 6-553)) | pKi (JAK2) | pKi (JAK3) | pKi [1] |
| --- | --- | --- | --- | --- |
| CC(C)CNc1cccc(-c2c[nH]c3ncc(Cl)cc23)n1 [Compound 99] | 5.30 to 6.30 | > 6.30 | > 6.30 | > 6.30 |
| OC[C@H](Nc1cccc(-c2c[nH]c3ncc(Cl)cc23)n1)c1ccccc1 [Compound 100] | 5.30 to 6.30 | > 6.30 | > 6.30 | > 6.30 |
| OC[C@@H](Nc1cccc(-c2c[nH]c3ncc(Cl)cc23)n1)c1ccccc1 [Compound 101] | 5.30 to 6.30 | > 6.30 | > 6.30 | > 6.30 |
| C[C@H](CO)Nc1cccc(-c2c[nH]c3ncc(Cl)cc23)n1 [Compound 102] | 5.30 to 6.30 | > 6.30 | > 6.30 | 5.30 to 6.30 |
| C[C@@H](CO)Nc1cccc(-c2c[nH]c3ncc(Cl)cc23)n1 [Compound 103] | 5.30 to 6.30 | > 6.30 | > 6.30 | 5.30 to 6.30 |
| CC(=O)N1[C@H](C)CN(c2ccc(-c3nnn[nH]3)c(-c3c[nH]c4ncc(Cl)cc34)n2)C[C@@H]1C [Compound 110] | 5.30 to 6.30 | 5.30 to 6.30 | 5.30 to 6.30 | 5.30 to 6.30 |
| CC(=O)Nc1cnc2[nH]cc(-c3cccc(N4C[C@@H](C)N(C(C)=O)[C@@H](C)C4)n3)c2c1 [Compound 113] | 5.30 to 6.30 | > 6.30 | > 6.30 | 5.30 to 6.30 |
| CCC(=O)Nc1cnc2[nH]cc(-c3cccc(N4C[C@@H](C)N(C(C)=O)[C@@H](C)C4)n3)c2c1 [Compound 114] | 5.30 to 6.30 | > 6.30 | > 6.30 | 5.30 to 6.30 |
| CC(=O)N1[C@H](C)CN(c2cccc(-c3c[nH]c4ncc(NC(=O)C(C)C)cc34)n2)C[C@@H]1C [Compound 117] | 5.30 to 6.30 | > 6.30 | > 6.30 | 5.30 to 6.30 |
| C=CC(=O)Nc1cnc2[nH]cc(-c3cccc(N4C[C@@H](C)N(C(C)=O)[C@@H](C)C4)n3)c2c1 [Compound 118] | 5.30 to 6.30 | > 6.30 | > 6.30 | 5.30 to 6.30 |
| CCOC(=O)CCC(=O)Nc1cnc2[nH]cc(-c3cccc(N4C[C@@H](C)N(C(C)=O)[C@@H](C)C4)n3)c2c1 [Compound 119] | 5.30 to 6.30 | > 6.30 | > 6.30 | 5.30 to 6.30 |
| CC(=O)N1[C@H](C)CN(c2nc(-c3c[nH]c4ncc(Cl)cc34)ccc2-c2nnn[nH]2)C[C@@H]1C [Compound 120] | 5.30 to 6.30 | > 6.30 | > 6.30 | > 6.30 |
| CC(=O)N1[C@H](C)CN(c2cccc(-c3c[nH]c4ncc(NC(=O)CCN5CCOCC5)cc34)n2)C[C@@H]1C [Compound 121] | 5.30 to 6.30 | > 6.30 | > 6.30 | 5.30 to 6.30 |
| CN(C)c1cccc(-c2c[nH]c3ncc(Cl)cc23)n1 [Compound 122] | 5.30 to 6.30 | > 6.30 | > 6.30 | 5.30 to 6.30 |
| CC(C)CN(C)c1cccc(-c2c[nH]c3ncc(Cl)cc23)n1 [Compound 123] | 5.30 to 6.30 | > 6.30 | > 6.30 | 5.30 to 6.30 |
| CC(=O)N1CCCN(c2cccc(-c3c[nH]c4ncc(C(=O)NCCN5CCOCC5)cc34)n2)CC1 [Compound 124] | 5.30 to 6.30 | > 6.30 | > 6.30 | 5.30 to 6.30 |
| CC(=O)N1CCCN(c2cccc(-c3c[nH]c4ncc(C(=O)NCCCN5CCN(C)CC5)cc34)n2)CC1 [Compound 125] | 5.30 to 6.30 | > 6.30 | > 6.30 | 5.30 to 6.30 |

| Structure (SMILES) | pKi (ROCK I (AA 6-553)) | pKi (JAK2) | pKi (JAK3) | pKi [1] |
| --- | --- | --- | --- | --- |
| CC(=O)N1[C@H](C)CN(c2cccc(-c3c[nH]c4ncc(NC(=O)CCN5CCNCC5)cc34)n2)C[C@@H]1C [Compound 128] | 5.30 to 6.30 | > 6.30 | > 6.30 | 5.30 to 6.30 |
| CC(C)[C@@H](C)Nc1cccc(-c2c[nH]c3ncc(Cl)cc23)n1 [Compound 130] | 5.30 to 6.30 | > 6.30 | > 6.30 | > 6.30 |
| C[C@@H](Nc1cccc(-c2c[nH]c3ncc(Cl)cc23)n1)c1ccc(F)cc1 [Compound 131] | 5.30 to 6.30 | > 6.30 | > 6.30 | > 6.30 |
| O[C@H]1CCCC[C@@H]1Nc1cccc(-c2c[nH]c3ncc(Cl)cc23)n1 [Compound 132] | 5.30 to 6.30 | > 6.30 | > 6.30 | > 6.30 |
| CC(C)CNc1cc(C#N)cc(-c2c[nH]c3ncc(Cl)cc23)n1 [Compound 150] | 5.30 to 6.30 | > 6.30 | > 6.30 | 5.30 to 6.30 |
| N#Cc1cc(-c2c[nH]c3ncc(Cl)cc23)nc(N2CCCNCC2)c1 [Compound 151] | > 6.30 | > 6.30 | > 6.30 | > 6.30 |
| CC(=O)N1[C@H](C)CN(c2cccc(-c3c[nH]c4ncc(NC(=O)CCCN5CCNCC5)cc34)n2)C[C@@H]1C [Compound 152] | 5.30 to 6.30 | > 6.30 | > 6.30 | 5.30 to 6.30 |
| CC(=O)N1[C@H](C)CN(c2cccc(-c3c[nH]c4ncc(NC(=O)CCCN5CCOCC5)cc34)n2)C[C@@H]1C [Compound 153] | 5.30 to 6.30 | > 6.30 | > 6.30 | 5.30 to 6.30 |
| C=C(C)C(=O)Nc1cnc2[nH]cc(-c3cccc(N4C[C@@H](C)N(C(C)=O)[C@@H](C)C4)n3)c2c1 [Compound 154] | 5.30 to 6.30 | > 6.30 | > 6.30 | 5.30 to 6.30 |
| CC(=O)N1[C@H](C)CN(c2cccc(-c3c[nH]c4ncc(NC(=O)C5=CCCCC5)cc34)n2)C[C@@H]1C [Compound 155] | 5.30 to 6.30 | > 6.30 | > 6.30 | 5.30 to 6.30 |
| CC(=O)N1[C@H](C)CN(c2cccc(-c3c[nH]c4ncc(NC(=O)c5ccccc5)cc34)n2)C[C@@H]1C [Compound 156] | > 6.30 | > 6.30 | > 6.30 | 5.30 to 6.30 |
| CC(=O)N1[C@H](C)CN(c2cccc(-c3c[nH]c4ncc(NC(=O)C5=CCCC5)cc34)n2)C[C@@H]1C [Compound 157] | 5.30 to 6.30 | > 6.30 | > 6.30 | 5.30 to 6.30 |
| CC(=O)N1[C@H](C)CN(c2cccc(-c3c[nH]c4ncc(NC(=O)C5CCCCC5)cc34)n2)C[C@@H]1C [Compound 158] | 5.30 to 6.30 | > 6.30 | > 6.30 | 5.30 to 6.30 |
| CNc1cnc2[nH]cc(-c3cccc(N4C[C@@H](C)N(C(C)=O)[C@@H](C)C4)n3)c2c1 [Compound 159] | 5.30 to 6.30 | > 6.30 | > 6.30 | 5.30 to 6.30 |
| C/C=C(\C)C(=O)Nc1cnc2[nH]cc(-c3cccc(N4C[C@@H](C)N(C(C)=O)[C@@H](C)C4)n3)c2c1 [Compound 161] | 5.30 to 6.30 | > 6.30 | > 6.30 | 5.30 to 6.30 |
| CC(=O)N1[C@H](C)CN(c2cccc(-c3c[nH]c4ncc(NC(=O)c5cscn5)cc34)n2)C[C@@H]1C [Compound 162] | 5.30 to 6.30 | > 6.30 | > 6.30 | 5.30 to 6.30 |
